For one experiment, the target named is AII receptor. Nature of the experiment: Angiotensin II receptor binding (displacement of 3H-AII). As to conditions: read-out: Angiotensin II Receptor Binding IC50, rat adrenal cortical microsomes, 2 nM 3H-AII, 1 hour, room temperature. Put shortly: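 The receptor source was rat adrenal cortical microsomes in Tris buffer, incubated with 2 nM ³H-AII plus or minus test compound for 1 h at room temperature. Bound and free ligand were separated by rapid filtration on glass-fibre filters. Filter-bound ³H-AII was counted by scintillation.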

The next experiment concerns Renal Hypertensive Rats. Nature of the experiment: Antihypertensive effects in renal hypertensive rats. The format is in vivo. As to conditions: Rattus norvegicus; for minimal effective dose at 10 mg/kg / minimal effective dose at 100 mg/kg: Table 25; for minimal effective dose at 10 mg/kg / minimal effective dose at 3 mg/kg: intravenous; for minimal effective dose at 10 mg/kg: 10 mg/kg or less; for minimal effective dose at 100 mg/kg / minimal effective dose at 30 mg/kg: oral; for minimal effective dose at 100 mg/kg: 100 mg/kg or less; for minimal effective dose at 30 mg/kg / minimal effective dose at 3 mg/kg: Table 26. Put shortly:
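Renal hypertensive rats (renin-driven AII elevation) dosed orally at 100 mg/kg and/or i.v. via jugular cannula at 10 mg/kg; a second set used 30 mg/kg oral and 3 mg/kg i.v. Arterial pressure recorded continuously via carotid cannula and compared with pretreatment levels.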

[1] abbreviates: Table 25, tested as sodium salt.

Structures can show the parent of a compound that is named as a salt. Where two headings read alike, the source gives them in different places. Where only a bound is given, the exact number is not on record here.

Consider `CCCCc1nc(Cl)c(C(N)=O)n1Cc1ccc(-c2ccccc2C(=O)O)cc1` [Example 127, 1-[(2'-carboxybiphenyl-4-yl)methyl]-2-butyl-4-chloroimidazole-5-carboxamide], for which the IC50 at AII receptor (Table 25) came to 150 nM. For the same molecule, in the experiment with Renal Hypertensive Rats, the minimal effective dose at 10 mg/kg was below 10 mg/kg and the minimal effective dose at 100 mg/kg was below 100 mg/kg.
The like results for `CCCCc1ncc(C=O)n1Cc1ccc(-c2ccccc2C(=O)O)cc1` [Example 130] were, in that order, 470 nM, below 10 mg/kg and below 100 mg/kg.
The like results for `CCCCc1nc(Cl)c(C=O)n1Cc1ccc(-c2ccccc2-c2nnn[nH]2)cc1` [Example 132, 2-n-Butyl-4-chloro-1-[(2'-(1H-Tetrazol-5-yl)-biphenyl-4-yl)methyl]imidazole-5-carboxaldehyde] were, in that order, 20 nM, below 10 mg/kg and below 100 mg/kg.
The matching figures for `CCCCc1nc(C(F)(F)F)c(C=O)n1Cc1ccc(-c2ccccc2-c2nnn[nH]2)cc1` [Example 133]: 36 nM, below 10 mg/kg and below 100 mg/kg.
For `CCCCc1nc(Cl)c(C(=O)NC)n1Cc1ccc(-c2ccccc2C(=O)O)cc1` [Example 134], the IC50 on AII receptor (Table 25) is 180 nM. In the experiment on Renal Hypertensive Rats, this molecule yielded a minimal effective dose at 10 mg/kg below 10 mg/kg and a minimal effective dose at 100 mg/kg below 100 mg/kg.
For the molecule `CCCCc1nc(Cl)c(C(=O)N(C)C)n1Cc1ccc(-c2ccccc2C(=O)O)cc1` [Example 135], at AII receptor (Table 25), the IC50 came to 1300 nM. In the experiment on Renal Hypertensive Rats, this molecule returned a minimal effective dose at 10 mg/kg below 10 mg/kg and a minimal effective dose at 100 mg/kg below 100 mg/kg.
The like results for `CCC=Cc1nc(C(F)(F)F)c(CO)n1Cc1ccc(-c2ccccc2C(=O)O)cc1` [Example 137] were, in that order, 53 nM, below 10 mg/kg and below 100 mg/kg.
Regarding `CCCc1nc(C(F)(F)F)c(C=O)n1Cc1ccc(-c2ccccc2C(=O)O)cc1` [Example 140A], the IC50 at AII receptor (Table 26) was 390 nM. Also, the minimal effective dose at 30 mg/kg in the experiment with Renal Hypertensive Rats is below 30 mg/kg.
Take `CCCc1nc(C(F)(F)C(F)(F)F)c(C=O)n1Cc1ccc(-c2ccccc2C(=O)O)cc1` [Example 140B]: at AII receptor (Table 26), the half-maximal inhibitory concentration (IC50) turned out to be 160 nM. The same molecule displayed a minimal effective dose at 30 mg/kg in the experiment on Renal Hypertensive Rats below 30 mg/kg.
Consider `CCCc1nc(C(F)(F)F)c(C=O)n1Cc1ccc(-c2ccccc2-c2nnn[nH]2)cc1` [Example 140C], for which the IC50 at AII receptor (Table 26) was determined as 20 nM. In the experiment on Renal Hypertensive Rats, this molecule showed a minimal effective dose at 3 mg/kg below 3 mg/kg and a minimal effective dose at 30 mg/kg below 30 mg/kg.
The like results for `CCCCc1nc(Br)c(C=O)n1Cc1ccc(-c2ccccc2C(=O)O)cc1` [Example 140D] were, in that order, 400 nM, below 3 mg/kg and below 30 mg/kg.
The matching figures for `CCCCc1nc(Br)c(C=O)n1Cc1ccc(-c2ccccc2-c2nnn[nH]2)cc1` [Example 140E]: 33 nM, below 3 mg/kg and below 30 mg/kg.
Consider `CCC=Cc1nc(C(F)(F)F)c(C=O)n1Cc1ccc(-c2ccccc2C(=O)O)cc1` [Example 140F], for which, on AII receptor (Table 26), the IC50 stood at 200 nM. In the experiment on Renal Hypertensive Rats, this molecule had a minimal effective dose at 3 mg/kg below 3 mg/kg and a minimal effective dose at 30 mg/kg below 30 mg/kg.
For `CCCCc1nc(C(F)(F)F)c(C(=O)OC)n1Cc1ccc(-c2ccccc2-c2nnn[nH]2)cc1` [Example 140H], the IC50 at AII receptor (Table 26) came to 76 nM. In the experiment on Renal Hypertensive Rats, this molecule yielded a minimal effective dose at 3 mg/kg below 3 mg/kg and a minimal effective dose at 30 mg/kg below 30 mg/kg.
Take `CCCCc1nc(C(F)(F)F)c(C(=O)OCC)n1Cc1ccc(-c2ccccc2-c2nnn[nH]2)cc1` [Example 140I]: the IC50 at AII receptor (Table 25) was determined as 52 nM. In the experiment with Renal Hypertensive Rats, this molecule gave a minimal effective dose at 10 mg/kg below 10 mg/kg and a minimal effective dose at 100 mg/kg below 100 mg/kg.
`CCCCc1nc(C(F)(F)F)c(C(N)=O)n1Cc1ccc(-c2ccccc2-c2nnn[nH]2)cc1` [Example 140J]: the half-maximal inhibitory concentration (IC50) on AII receptor (Table 26) is 27 nM. In the experiment with Renal Hypertensive Rats, the minimal effective dose at 3 mg/kg is below 3 mg/kg and the minimal effective dose at 30 mg/kg was below 30 mg/kg.
The matching figures for `CCCCc1nc(I)c(C=O)n1Cc1ccc(-c2ccccc2-c2nnn[nH]2)cc1` [Example 140K]: 38 nM, below 3 mg/kg and below 30 mg/kg.
As for `CCCCc1nc(Cl)c(C=O)n1Cc1cccc(-c2ccccc2-c2nnn[nH]2)c1` [Example 140L], at AII receptor (Table 26), the half-inhibitory concentration (IC50) amounted to 5700 nM. In the experiment on Renal Hypertensive Rats, this molecule showed a minimal effective dose at 3 mg/kg below 3 mg/kg and a minimal effective dose at 30 mg/kg below 30 mg/kg.
Take `CCCCc1nc(Cl)c(CNC(=O)OCC)n1Cc1ccc(-c2ccccc2C(=O)O)cc1` [Example 148, 2-Butyl-1-[(2'-carboxybiphenyl-4-yl)methyl]-4-chloro-5-(ethoxycarbonylaminomethyl)imidazole]: the IC50 on AII receptor (setting [1]) was found to be 200 nM. In the experiment with Renal Hypertensive Rats (tested as sodium salt), the minimal effective dose at 10 mg/kg was below 10 mg/kg and the minimal effective dose at 100 mg/kg was below 100 mg/kg.
The matching figures for `CCCCc1nc(Cl)c(CNC(=O)Oc2ccccc2)n1Cc1ccc(-c2ccccc2C(=O)O)cc1` [Example 149]: 450 nM, below 10 mg/kg and below 100 mg/kg.
The like results for `CCCCc1nc(Cl)c(CNC(=O)OC)n1Cc1ccc(-c2ccccc2C(=O)O)cc1` [Example 150] were, in that order, 200 nM, below 10 mg/kg and below 100 mg/kg.
The like results for `CCCCc1nc(Cl)c(CNC(=O)OCCC)n1Cc1ccc(-c2ccccc2C(=O)O)cc1` [Example 151] were, in that order, 560 nM, below 10 mg/kg and below 100 mg/kg.
As for `CCCCc1nc(Cl)c(CNC(=O)OC(C)C)n1Cc1ccc(-c2ccccc2C(=O)O)cc1` [Example 152], on AII receptor (setting [1]), the IC50 was found to be 250 nM. In addition, in the experiment with Renal Hypertensive Rats (tested as sodium salt), the minimal effective dose at 10 mg/kg is below 10 mg/kg and the minimal effective dose at 100 mg/kg is below 100 mg/kg.
With `CCCCOC(=O)NCc1c(Cl)nc(CCCC)n1Cc1ccc(-c2ccccc2C(=O)O)cc1` [Example 153], the IC50 on AII receptor (setting [1]) stood at 200 nM. In the experiment on Renal Hypertensive Rats (tested as sodium salt), the minimal effective dose at 10 mg/kg is below 10 mg/kg and the minimal effective dose at 100 mg/kg is below 100 mg/kg.
`CCCCc1nc(Cl)c(CNC(=O)OC23CC4CC(CC(C4)C2)C3)n1Cc1ccc(-c2ccccc2C(=O)O)cc1` [Example 154]: the IC50 on AII receptor (setting [1]) is 600 nM. For the same molecule, in the experiment on Renal Hypertensive Rats (tested as sodium salt), the minimal effective dose at 10 mg/kg was below 10 mg/kg and the minimal effective dose at 100 mg/kg is below 100 mg/kg.
In the case of `CCCCc1nc(Cl)c(CNC(=O)OC)n1Cc1ccc(-c2ccccc2-c2nnn[nH]2)cc1` [Example 156], the IC50 at AII receptor (Table 25) is 60 nM. In the experiment with Renal Hypertensive Rats, this molecule registered a minimal effective dose at 10 mg/kg below 10 mg/kg.
Regarding `CCCCc1nc(CNC(=O)OC)c(Cl)n1Cc1ccc(-c2ccccc2C(=O)O)cc1` [Example 160], the IC50 at AII receptor (setting [1]) worked out at 120 nM. Besides, in the experiment on Renal Hypertensive Rats (tested as sodium salt), the minimal effective dose at 10 mg/kg is below 10 mg/kg and the minimal effective dose at 100 mg/kg was below 100 mg/kg.
The like results for `CCCCc1nc(CNC(=O)OCCC)c(Cl)n1Cc1ccc(-c2ccccc2C(=O)O)cc1` [Example 162] were, in that order, 140 nM, below 10 mg/kg and below 100 mg/kg.
The like results for `CCCCc1nc(Cl)c(CNC(=O)Nc2cccc3ccccc23)n1Cc1ccc(-c2ccccc2C(=O)O)cc1` [Example 165, 2-n-Butyl-1-[(2'-carboxybiphenyl-4-yl)methyl]-4-chloro-5-(1-naphthylaminocarbonylaminomethyl)-imidazole] were, in that order, 3000 nM, below 10 mg/kg and above 100 mg/kg.
The like results for `CCCCc1nc(Cl)c(CNC(=O)NC)n1Cc1ccc(-c2ccccc2C(=O)O)cc1` [Example 166] were, in that order, 240 nM, below 10 mg/kg and above 100 mg/kg.
With `CCCCc1nc(Cl)c(CNC(=O)NC(C)c2cccc3ccccc23)n1Cc1ccc(-c2ccccc2C(=O)O)cc1` (stereo not drawn) [Example 171], at AII receptor (setting [1]), the IC50 stood at 600 nM. Further, in the experiment on Renal Hypertensive Rats (tested as sodium salt), the minimal effective dose at 10 mg/kg was below 10 mg/kg and the minimal effective dose at 100 mg/kg is above 100 mg/kg.
On to `CCCCc1nc(Cl)c(COC)n1Cc1ccc(-c2ccccc2Cc2nn[nH]n2)cc1` [Example 174, 2-n-Butyl-4-chloro-5-methoxymethyl-1-[(2'-((tetrazol-5-yl)methyl)biphenyl-4-yl)methyl]imidazole], for which the half-inhibitory concentration (IC50) at AII receptor (setting [1]) is 300 nM. In the experiment with Renal Hypertensive Rats (tested as sodium salt), the minimal effective dose at 10 mg/kg was below 10 mg/kg and the minimal effective dose at 100 mg/kg was above 100 mg/kg.
On to `CCCCc1nc(Cl)c(CO)n1Cc1ccc(-c2ccccc2CC(=O)O)cc1` [Example 175, 2-n-Butyl-1-[(2'-(carboxymethyl)biphenyl-4-yl)methyl]-4-chloro-5-(hydroxymethyl)-imidazole.dicyclohexylamine salt], for which, at AII receptor (setting [1]), the IC50 stood at 1500 nM. For the same molecule, in the experiment on Renal Hypertensive Rats (tested as sodium salt), the minimal effective dose at 10 mg/kg was below 10 mg/kg and the minimal effective dose at 100 mg/kg is above 100 mg/kg.
Consider `CCCCc1nc(Cl)c(COC)n1Cc1ccc(-c2ccccc2C(=O)NNS(=O)(=O)C(F)(F)F)cc1` [Example 176, 2-n-Butyl-4-chloro-5-methoxymethyl-1-[4-(2-(trifluoromethylsulfonylhydrazido)biphenyl-4-yl)methyl]imidazole], for which the IC50 on AII receptor (Table 25) is 200 nM. In the experiment with Renal Hypertensive Rats, this molecule yielded a minimal effective dose at 10 mg/kg below 10 mg/kg and a minimal effective dose at 100 mg/kg above 100 mg/kg.
For the molecule `CCCCc1nc(Cl)c(CO)n1Cc1ccc(-c2ccccc2-c2c[nH]nn2)cc1` [Example 177], at AII receptor (Table 25), the IC50 came out at 9600 nM. Moreover, in the experiment on Renal Hypertensive Rats, the minimal effective dose at 10 mg/kg is below 10 mg/kg and the minimal effective dose at 100 mg/kg is above 100 mg/kg.

The values above are taken from patent US5138069A (E. I. Du Pont de Nemours and Company, priority 1988, dated 1992).
